# Assay results from publication PMC7355663, “Microscale Thermophoresis as a Screening Tool to Predict Melanin Binding of Drugs” (Pharmaceutics, 2020).
# Where two headings read alike, the source gives them in different places.
# Tests used:
# melanin [1] = test: in vitro; settings: for fraction unbound at 20 h, 1 µM: pig, pH 7.4
# Method: (§1) The traditional melanin binding assay was conducted with melanin from the porcine RPE-choroid. We used previously published methods for melanin isolation and drug binding. Fresh melanin suspension and test compound solutions were prepared before each experiment. The melanin suspension (in PBS, pH 7.4) was sonicated in a bath sonicator for 30 min (Elmasonic S 40 H, Elma Schmidbauer GmbH, Singen, Germany) before the experiment. The incubation with test compounds took place at 37 °C on a shaker (220 rpm), and the melanin concentration in the assay was 1 mg/mL (0.15 mg/well). In the control samples, PBS buffer (pH 7.4) was used instead of the melanin suspension. Three individual replicates were made for each experiment. After 20 h incubation, the samples were centrifuged at 20,000× g for 20 min, and supernatant containing the unbound ligand was collected for analysis.
# (§2) Samples having an estimated concentration of 0.5 µM or higher were analyzed with ultra-high pressure liquid chromatography (UPLC) (Acquity UPLC, Waters, Milford, MA, USA) with UV detection (Photodiode Array Detector, Waters, MA, USA). The separation was carried out on a Luna Omega Polar C18 (1.6 μm, 2.1 × 50 mm^2) column (Phenomenex) at 30 °C. Injection volume was 4 µL. Gradient mode was used for all the compounds with an acetonitrile/15 mM phosphate buffer (pH 2) mobile phase. Gradient duration was 3−5 min depending on the sample (levofloxacin, terazosin, and papaverine).
# (§3) All internal standards, namely levofloxacin D8, terazosin D8, and papaverine D3, were purchased from Toronto Research Chemicals (Toronto, ON, Canada). […] Injection volumes were 0.2 μL for terazosin, 0.3 µL for levofloxacin, and 0.15 µl for papaverine with a flow through needle injection system. The mobile phase consisted of 0.1% formic acid (Merck, Darmstadt, Germany) in ultrapure water (A) and 100% LC–MS grade acetonitrile (Honeywell, Seelze, Germany) (B). […] The gradient for levofloxacin was the same as for papaverine, but the total run time was 6 min. The flow rate was 0.3 mL/min for all the compounds.
# (§4) Mass spectrometric measurements were carried out using a Waters Xevo TQ-S triple quadruple mass spectrometer coupled with an electrospray ionization (ESI) on a positive mode for all three compounds. Optimized MS-parameters were as follows: capillary 1.5 kV (terazosin and papaverine), 3.5 kV (levofloxacin), cone voltage 80 V (terazosin) and 8 V (terazosin D8), 22 V (papaverine and papaverine D3), 28 V (levofloxacin and levofloxacin D8), source temperature 150 °C, and desolvation temperature 500 °C (terazosin) or 450 °C (papaverine and levofloxacin). Nitrogen (AGA, Helsinki, Finland) was used as the desolvation gas (1000 L·h^−1 terazosin, 800 L·h^−1 papaverine and levofloxacin) and the cone gas (150 L·h^−1), argon (AGA, Helsinki, Finland) as the collision gas. Multiple reaction monitoring (MRM) mode was employed for quantification. […] The resulting data were analyzed with Waters MassLynx V4.1 software. To consider the effect of melanin on the analyses, separate samples containing only melanin in PBS (with no test compound) were also studied.
# (§5) The binding parameters were determined with Sips isotherm (Equation (2)) as described by Manzanares et al.. B = (Bmax × [L]^n)/(Kd^n + [L]^n)(2) where B is the amount of bound drug (nmol·mg^−^1); Bmax is the maximum binding capacity (nmol·mg^−^1); [L] is the free drug concentration (µM); n is the heterogeneity index (assuming heterogeneity of the surface of the melanin particles); and Kd represents the dissociation constant (µM).
# melanin [2] = test: Prediction of unbound ligand fraction in vivo (human RPE-choroid); settings: human
# Method: (§6) Unbound ligand fractions in vivo were calculated considering melanin binding as the only driver of nonspecific tissue binding.
# (§7) Linear regression was used to describe the relationship between the Kd values obtained with the MST and the predicted unbound ligand fractions in human RPE-choroid obtained with calculations described above.
# (§8) The Kd values obtained with MST consider only one class of binding site, whereas the Sips isotherm (the traditional binding assay) depicts different binding energies and binding sites. […] This approach is relevant to evaluate the melanin binding.
# [3] = Traditional melanin binding assay (equilibrium binding, Sips isotherm); settings: for Target Capacity ± SE, traditional method (Sips isotherm): Bmax multiplied with 0.5 mg/mL melanin concentration of the MST assay; for n ± SE, traditional method (Sips isotherm): heterogeneity index; for n ± SE, traditional method (Sips isotherm) / Bmax ± SE, traditional method (Sips isotherm) / Kd: 1 mg/mL melanin, PBS pH 7.4, 37 °C; for Bmax ± SE, traditional method (Sips isotherm): maximum binding capacity; for Kd: read-out: Kd ± SE, traditional method (Sips isotherm)
# Method: as §1, §2, §3, §4, §5
# [4] = Label-free microscale thermophoresis (MST) melanin binding assay; settings: for melanin binder category in Figure 1a: comparison of MST with traditional assay
# Method: Synthetic melanin was purchased from Sigma Aldrich (#M8631-100 mg). Melanin nanoparticles were prepared as described earlier by Fan et al., and low-binding pipette tips (Maxymum RecoveryTM pipet tips, Corning Incorporated, Salt Lake City, UT, USA) and tubes (No stick microtubes, Alpha Laboratories, Hampshire, UK) were used with both melanin and melanin nanoparticles. Briefly, melanin was dissolved into 1 N NaOH with a concentration of 2 mg/mL and stirred by vortexing. The solution was neutralized by adding an equal volume of 1 N HCl. […] After the final centrifugation, the resulting nanoparticles were suspended into a small volume of sterile water and freeze-dried for 48–72 h (ModulyoD-230, Thermo Savant, Holbrook, NY, USA), and stored at −20 °C until the binding assays.
# Melanin binding of each of the 13 model compounds was determined (for the concentrations in the assay, see Table 1). The dilution series of drugs were prepared onto a PCR plate (4titude PCR Plate, Skirted, #4ti-0740, Brooks Life Sciences, Chelmsford, MA, USA) in phosphate buffered saline (PBS, pH 7.4). […] The compound dilutions (10 µL) were transferred into 0.2 mL PCR tube strips (#TBS0201, Bio-Rad Laboratories, Inc., Hercules, CA, USA), and an equal volume of 1 mg/mL melanin nanoparticle dilution was added, resulting in a final melanin concentration of 0.5 mg/mL. At least three biological replicates (individually incubated dilution series) were prepared for each compound (n = 3–5). A reference sample containing only melanin nanoparticles and PBS (pH 7.4) was included in each assay to determine the unbound state in the thermophoresis experiment. Melanin nanoparticles were incubated with the compounds at room temperature for at least 2 h.
# After >2 h incubation, the melanin–ligand complexes were mixed gently with a pipette to ensure melanin solution homogeneity and then transferred into capillaries (Monolith NT.115 Premium capillaries, #MOK025, NanoTemper Technologies GmbH, München, Germany). The samples were analyzed with a Monolith NT.115 pico device using MO.Control Software (both from NanoTemper Technologies GmbH, München, Germany) using nano-blue excitation, LED light adjusted to 60% excitation power, and infrared laser (MST power) set to high. […] The equation is based on the Langmuir binding isotherm. […] Equation (1) is a follows:(1) f(c)=Unbound+(Bound−Unbound)×c+c(target)+Kd−(c+c(target)+Kd)^2−4c×c(target)/2c(target) where f(c) is the fraction bound at a given ligand concentration c. Unbound is either the normalized fluorescence signal (Fnorm; MST mode) or raw fluorescence counts (initial fluorescence mode) of the target alone. Bound is either the normalized fluorescence signal or raw fluorescence counts (initial fluorescence mode) of the melanin–ligand complex. Kd is the dissociation constant or binding affinity, and c (target) is the final concentration of the target in the assay.
# The normalized fluorescence is the ratio of relative fluorescence of the selected region after heating (hot region) and relative initial fluorescence before the heating (cold region, i.e., relative fluorescence values before the infrared laser was switched on). The MST traces displaying the changes in the relative fluorescence over time (heating) with the selected hot and cold regions are presented in the Supplementary Materials. In the case of ligand-induced changes in the initial raw fluorescence counts, the raw fluorescence counts prior to the heating were used (initial fluorescence mode). If the ligand-induced fluorescence changes were not observed, the normalized fluorescence signals (MST mode) were used to determine the Kd (for additional information, see the Supplementary Materials). […] Affinity Analysis Software.
# Kd determination strategies. The Kd values were tested in both initial fluorescence and the above
# described MST modes within the MO Affinity Analysis Software (Fig. S1, Table S1) and the Kd values
# [5] = Prediction of unbound ligand fraction in vivo (human RPE-choroid); settings: class by predicted fraction unbound in vivo, human RPE-choroid
# Method: as §6, §7, §8
# [6] = monkeys and humans; ref [10]; cited from earlier work
# [7] = parameters: method as in PMID 26741026, PMID 29859954; settings: from previous studies, ref [11],[16], cited from earlier work; for Kd: read-out: Kd ± SE, traditional method (Sips isotherm); for n ± SE, traditional method (Sips isotherm): heterogeneity index; for Bmax ± SE, traditional method (Sips isotherm): maximum binding capacity
# [8] = average of the two high binders; 34 compounds in cassette; melanin 3.6 mg/mL; data of Pelkonen et al. [6]
# Method: as §6
# [9] = human RPE-choroid (predicted), 34.8 mg/mL melanin
# [10] = 0.5 mg/mL (12.5 µM) melanin nanoparticles, PBS pH 7.4, room temperature, 68% confidence, initial fluorescence mode for compounds marked *, otherwise MST mode, read-out: Kd ± Kd Confidence (MST)
# [11] = Table S2, normalized fluorescence, 60% excitation power, read-out: Kd, MST mode (Fnorm)
# [12] = Table S2, raw fluorescence counts before heating, 60% excitation power, read-out: Kd, initial fluorescence mode (converted)
SMILES,"Target Capacity ± SE, traditional method (Sips isotherm) [3]","fraction unbound at 20 h, 1 µM (melanin [1])","Kd [4, 10]","Kd [4, 11]","Kd [4, 12]",Melanin binding class based on traditional assay [5],fraction unbound at 1 µM (melanin [2]; [9]),"n ± SE, traditional method (Sips isotherm) [7]","Bmax ± SE, traditional method (Sips isotherm) [7]",further results
CC1(C)S[C@@H]2[C@H](NC(=O)Cc3ccccc3)C(=O)N2[C@H]1C(=O)O [Penicillin G],,,,,,,,,,fraction unbound (melanin [1]): 0.092; fraction unbound (melanin [2]; [9]): 0.0029
COc1cc2nc(N3CCN(C(=O)C4CCCO4)CC3)nc(N)c2cc1OC (centres unmarked) [Terazosin],56 ± 6.5 µM,0.029,29 ± 28 µM,96 µM,29 µM,extreme,0.00012,,,"n ± SE, traditional method (Sips isotherm) ([3]; 20 h): 0.64 ± 0.018; Bmax ± SE, traditional method (Sips isotherm) ([3]; 20 h): 112 ± 13 nmol/mg; Kd ([3]; 20 h): 46 ± 16 µM"
CC(C)NCC(O)COc1ccc(CCOCC2CC2)cc1 (centres unmarked) [betaxolol],,,,,,,,,,concentration in pigmented eye tissues compared to neighboring non-pigmented tissues [6]: 20–150 fold
CC(C)(C)NCC(O)COc1cccc2c1CC(O)C(O)C2 (centres unmarked) [Nadolol],34 ± 12 µM,,200 ± 33 µM,260 µM,200 µM,intermediate,0.08,0.94 ± 0.05,68 ± 24 nmol/mg,"Fraction Unbound in Vitro (%) (1 mg/mL Melanin) ([3]; pig, 20 h, 1 µM, pH 7.4): 78%; Kd [7]: 340 ± 200 µM"
CN(Cc1cnc2nc(N)nc(N)c2n1)c1ccc(C(=O)N[C@@H](CCC(=O)O)C(=O)O)cc1 [Methotrexate],,,3500 µM,> 10000 µM,3500 µM,low,,,,"fraction unbound (melanin [1]): 0.98; Kd ± SE, traditional method (Sips isotherm) [7]: no binding ^1; melanin binder category in Figure 1a [4]: Weak melanin binders; fraction unbound (melanin [2]; [9]): 0.54"
Clc1ccc2nsnc2c1NC1=NCCN1 [tizanidine],,,,,,,,,,unbound fraction in cassette assay compared to single compound incubation [8]: 2.1 fold
CC(C)(C)NC[C@H](O)COc1nsnc1N1CCOCC1 [Timolol],19.5 ± 3 µM,0.71,260 ± 128 µM,260 µM,,intermediate,0.057,0.95 ± 0.03,39 ± 6 nmol/mg,Kd [7]: 120 ± 30 µM
CCN(CC)CCCC(C)Nc1ccnc2cc(Cl)ccc12 (centres unmarked) [Chloroquine],190 ± 20 µM,0.0041,0.8 µM,0.8 µM,,extreme,1.2e-05,0.605 ± 0.012,380 ± 40 nmol/mg,Kd [7]: 76 ± 23 µM
C=C[C@H]1C[N@@]2CC[C@H]1C[C@@H]2[C@@H](O)c1ccnc2ccc(OC)cc12 [Quinidine],,,,,,,,,,fraction unbound (melanin [1]): 0.16
COc1ccc(Cc2nccc3cc(OC)c(OC)cc23)cc1OC [Papaverine],33 ± 4 µM,0.15,28 ± 23 µM,93 µM,28 µM,high,,,,"n ± SE, traditional method (Sips isotherm) ([3]; 20 h): 0.715 ± 0.015; Bmax ± SE, traditional method (Sips isotherm) ([3]; 20 h): 66 ± 8 nmol/mg; Kd ([3]; 20 h): 66 ± 18 µM; fraction unbound at 1 µM (melanin [2]): 0.0013"
CC(C)NCC(O)COc1cccc2ccccc12 (centres unmarked) [Propranolol],88 ± 30 µM,0.32,,,,high,0.009,0.89 ± 0.05,176 ± 60 nmol/mg,
O=C(O)Cc1ccccc1Nc1c(Cl)cccc1Cl [Diclofenac],,,,,,,,,,"Kd ± SE, traditional method (Sips isotherm) [7]: no binding ^1; Kd ± Kd Confidence (MST) ([4]; 0.5 mg/mL (12.5 µM) melanin nanoparticles, PBS pH 7.4, room temperature, 68% confidence, initial fluorescence mode for compounds marked *, otherwise MST mode): Kd could not be determined; Melanin binding class based on Kd from MST ([4]; class by Kd (MST)): low; melanin binder category in Figure 1a [4]: Weak melanin binders"
